Assay results: US5985893A, “Physically stable solid form of a fluoroquinolone” (Pharmacia & Upjohn Company, priority 1996, dated 1999)
≈ marks a conversion by molar mass, not a printed value. Where “and” joins values, the source holds several entries; their conditions need not be identical. Identical values can stand only once. Entries after “also recorded” stand apart in the source; their conditions may differ.

Tests used:
Type in all cases: physicochemical
[1] = DSC and thermomicroscopy of solid-state transformations
Procedure: A Nikon POH-2 polarized light compound microscope with 10× objective is employed to view specimens mounted dry between a glass microscope slide and a no. 11/2 Cover slip. The samples are heated from ambient through 250° C. in a Mettler FP-80 microfurnace controlled by a Mettler FP-8 microprocessor. The heating rates may vary from 5-20° C./minute. The hot-stage experiments may be videotaped (Sony T120-HG and PM VHS tape) with a Hitachi VK-C350 Color Video Camera and a Panasonic AG-6200 Video Cassette Recorder.
Differential scanning calorimetry (DSC) is used to monitor enthalpy changes as a function of temperature during a linear temperature increase. A DuPont 910 DSC interfaced to a TA Instruments TA2100 computer may be used. The scan rate is 5° C./minute, and the instrument is operated with a 50-80 cc/min dry nitrogen purge. Samples are encapsulated in hermetically sealed aluminum sample pans with a pressure rating of about 2 bar. In some experiments, the lids of the pans are perforated to permit the passage of moisture and other volatile components.
Because calorimetric samples are occasionally affected by residual moisture, samples are sometimes studied with different initial water activities. Samples are weighed into tared DSC pans, and the open pans are permitted to equilibrate for several days in chambers of constant relative humidity at 25±1° C. These chambers are prepared from saturated salt solutions at 53% RH and 75% RH. At the end of the equilibration period, the chambers are opened, and the lids are placed over the samples to prevent re-equilibration with the ambient atmosphere. The samples are removed from the chambers, and the pans are quickly crimped closed.
Detailed description of FIG. 8. […] The heating rate is 5° C./minute. (a.) The sample is encapsulated in a standard DSC pan. (b.) The sample is encapsulated in a hermetically sealed DSC pan. The profiles are offset along the ordinate axis for comparison.
Detailed description of FIG. 10. […] The heating rate was 5° C./minute. (a.) The sample was equilibrated at 53% RH and encapsulated in a standard DSC pan. (b.)The sample was equilibrated at 53% RH and encapsulated in a hermetically sealed DSC pan. (c.) The sample was equilibrated at 75% RH and encapsulated in a hermetically sealed DSC pan. The profiles were offset along the ordinate axis for comparison.

[2] = Stability of the solid forms to phase transformation (overall finding); settings: variety of conditions
[3] = Solubility of the quinolone, Forms I and III, in ethyl acetate; settings: 20° C, two values given
Procedure: Bulk drug samples are prepared by dissolving the material in mobile phase at a final concentration of approximately 0.25 to 0.5 mg/ml. For solubility experiments, 100 mcl aliquots of ethyl acetate solutions are withdrawn and placed directly into HPLC autosampler vials. A gentle stream of nitrogen gas is used to evaporate the solvent in the sample vials. The solids are reconstituted with 0.5 ml of HPLC mobile phase prior to analysis.
Solubilities are measured in ethyl acetate. Five to ten milligrams of bulk drug are placed into an amber autoinjector vial, and 3.0 ml of ethyl acetate are added. The vials are capped and shaken for intervals up to 24 hours at room temperature using a Burrell model BB wrist-action shaker. Aliquots are withdrawn from the supernate after centrifugation. The final sample is taken from a quiescent solution which had not been shaken since the 24 hour timepoint.
The solubilities of Forms I and III were determined in ethyl acetate at room temperature; the solubility data for each form was gathered simultaneously, to assure that each form's solubility was measured under identical conditions. Ethyl acetate was employed as an aprotic solvent yielding fairly low equilibrium solubilities of the quinolone; ethyl acetate has been used to evaluate the difference in free energy of polymorphic forms of an antinociceptive drug, as described by K. Raghavan et al., J. Pharm. Biomed. Anal. Vol.12 (6), pp. 777-785 (1994). Under the assumption that the solubilities in TABLE S are consistent with the dilute solution limit, we can use the following expression to calculate the difference in Gibbs free energy between Form I and Form III: [formula] where "sx " is the solubility of Form x in a sufficiently dilute solution, R is the gas constant, and T is the absolute temperature. Using the data in Table 1, we find that the Gibbs free energy of Form III is lower than that of Form I by 7.7±0.2 kJ/mole.

[4] = Dynamic moisture sorption gravimetry (controlled atmosphere microbalance, 25° C)
Procedure: Dynamic Moisture Sorption Gravimetry
Dynamic moisture uptake is studied on the controlled atmosphere microbalance system at 25° C. About ten mg of sample are equilibrated on the balance for about 2 hours at 2.5% RH. The relative humidity surrounding the sample is increased in increments of 3% RH up to about 92% RH, at which point the RH is decremented in 3% steps to a final RH of about 2.5%. At each relative humidity, the sample is allowed to equilibrate until the mass is stable within 0.0005 mg over a ten minute period. The dry mass is assumed to correspond to the mass of the sample after the initial equilibration period. A controlled atmosphere microbalance is a balance system described by Bergren, M.S. Int. J. Pharm. (1994) Vol. 103, pp. 103-114.
Detailed description of FIG. 2. […] The ordinate represents the mass change relative to the lowest mass measurement. The abscissa is relative humidity. The circles represent points recorded after sequential increases in the relative humidity and the squares were recorded after decreases in the relative humidity. The horizontal line in the middle of the plot corresponds to the water content of the hypothetical monohydrate of the quinolone.
Detailed description of FIG. 6. […] The ordinate represents the mass change relative to the lowest mass measurement. The abscissa is relative humidity. The circles represent points recorded after sequential increases in the relative humidity and the squares were recorded after decreases in the relative humidity. The horizontal line in the middle of the plot corresponds to the water content of the hypothetical monohydrate of the quinolone.

[5] = Isothermal calorimetry (ITC) of Form I to Form III conversion; settings: after ITC at 40° C
Procedure: Isothermal calorimetry (ITC) experiments are conducted using a model 2277 microcalorimeter made by ThermoMetric (see Suurkuusk, J.:Wadso, I. Chem. Scr. (1982) Vol. 20 pp. 155-163). The Digitam® version 2.1 software from Thermometric is used to display the data and to integrate the total heat obtained from the samples. Heat flow is monitored as a function of time at 60° C. and at 40° C. Both glass and stainless steel ampules are used to hold the solid samples and the reference material (quartz sand). Samples are thermally equilibrated for a period ranging from 15 minutes (glass ampules) to 1 hour (stainless steel ampules) prior to recording thermal data. The weight of the samples ranged from about 75 to 300 mg. Samples in glass ampules are equilibrated via the isopiestic method at 53% or 75% RH in chambers containing saturated solutions of sodium chloride or calcium nitrate tetrahydrate. The ampules are capped immediately after removing the samples. Other samples are equilibrated using "microhygrostats" containing small quantities of saturated salt solutions which are sealed within the ampules. This arrangement provided for nearly constant relative humidity as the crystal conversion proceeded.
We therefore studied the transformation of samples after equilibration at […] and 75% RH. […] HPLC analysis of the reaction product confirmed that the 60° C. ITC profiles contained negligible contributions from chemical decomposition.
A detailed explanation of FIG. 9 follows. […] Trace (a) is recorded from a sample of Form I equilibrated to 75% relative humidity before sealing the sample container and exposing it to the 60° C. conditions in the calorimeter. Trace (b) is recorded for a sample of Form I at 60° C., but a 75% relative humidity "microhygrostat" is placed in the sample container just prior to recording the data. The conversion is delayed from that of trace (a) due to the fact that the water must be transported from the microhygrostat to the Form I crystals during the experiment. Trace (c) is recorded for a sample of Form I at 60° C., but the sample was equilibrated at 53% relative humidity prior to sealing the sample container.
This trace results from placing a 75% relative humidity microhygrostat into the sample container just prior to recording the data. The sample is held at 40° C. in the calorimeter; the heat flow results as the Form I material converts to Form III.

[6] = Enthalpies of solution (solution calorimetry); settings: Form III grown directly from solution
Procedure: The enthalpies of solution are determined in 50 mL of 0.1 M HCl at 25.0±0.05° C. Samples (0.10-0.11 g ) are weighed in 2 ml spherical, soft glass ampules and dried overnight in an evacuated desiccator over P2 O5. The ampules are removed, capped, weighed, and flame sealed. The enthalpies of solution are measured on a Tronac model 458 isoperibol solution calorimeter. The calorimetric accuracy of this instrument is within 1% based on calibration with tris(hydroxymethyl)-aminomethane (TRIS) in 0.1 N HCl.

Row | Compound | Temperature of Form II to Form III transformation ([1]; melt/recrystallization) | Stability to transformation (in words) [2] | Solubility, concentration ([3]; 1 hour, 60 min) | Solubility, concentration ([3]; 2 hours, 120 min) | Solubility, concentration ([3]; 4.5 hours, 270 min) | Solubility, concentration ([3]; 18 hours, 1080 min) | Solubility, concentration ([3]; 24 hours, 1440 min) | Solubility, concentration ([3]; 67.5 hours (not shaken after 24 hours), 4050 min) | Moisture sorption behaviour (in words) ([4]; 25° C, sorption/desorption) | Moisture adsorbed ([4]; throughout the entire RH range) | Moisture content of recovered Form III crystals [5] | Enthalpy of Form III lower than Form I by [6] | Enthalpy of fusion ([1]; DSC) | Stability to transformation (in words) ([2]; listed as methanolate)
1 | CN[C@@H](C)[C@@H]1CCN(c2c(F)cc3c(=O)c(C(=O)O)cn(C4CC4)c3c2OC)C1 [Form II, [S-(R*,S*)]-1-cyclopropyl-6-fluoro-1,4-dihydro-8-methoxy-7-[3-[1-(methylamino)ethyl]-1-pyrrolidinyl]-4-oxo-3-quinolinecarboxylic acid] | 166-171 °C | undergo phase transformations under a variety of conditions | – | – | – | – | – | – | – | – | – | – | – | –
2 | CN[C@@H](C)[C@@H]1CCN(c2c(F)cc3c(=O)c(C(=O)O)cn(C4CC4)c3c2OC)C1 [Form III, [S-(R*,S*)]-1-cyclopropyl-6-fluoro-1,4-dihydro-8-methoxy-7-[3-[1-(methylamino)ethyl]-1-pyrrolidinyl]-4-oxo-3-quinolinecarboxylic acid] | – | stable to transformation | 60 µg/mL and 90 µg/mL | 110 µg/mL (≈ 273 µM) | 120 µg/mL (≈ 297 µM) | 140 µg/mL (≈ 347 µM) | 150 µg/mL (≈ 372 µM) | 140 µg/mL (≈ 347 µM) | sorbs less moisture than Form I at all relative humidities; also recorded: very little hysteresis between the sorption and desorption profiles, and the sample exhibited no evidence of recrystallization and/or hydrate Formation | less than 0.5% | 0.61% | about 8.8 kJ/mole | approximately 150 J/g | –
3 | CN[C@@H](C)[C@@H]1CCN(c2c(F)cc3c(=O)c(C(=O)O)cn(C4CC4)c3c2OC)C1 [Form MS, [S-(R*,S*)]-1-cyclopropyl-6-fluoro-1,4-dihydro-8-methoxy-7-[3-[1-(methylamino)ethyl]-1-pyrrolidinyl]-4-oxo-3-quinolinecarboxylic acid] | – | undergo phase transformations under a variety of conditions | – | – | – | – | – | – | – | – | – | – | – | desolvates to yield Form I under such mild conditions that solvent is not normally retained in the product crystals
